This is an account of results in US10005774B2, “Syk inhibitors” (Gilead Sciences, Inc., priority 2013, dated 2018).

The target of the first experiment is Syk (Homo sapiens, UniProt P43405). Kind of experiment: High Throughput Syk Biochemical Assay (KinEASE TR-FRET). The note with it: TABLE D, 20 μM ATP, 1 μM biotinylated peptide, 0.015 nM Syk, 30 min at room temperature, read-out: IC50. In short, it runs like this: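 Compounds in DMSO dilution series were tested against Syk, which phosphorylates an XL665-tagged peptide. The phosphoproduct was bound by Eu-labelled phosphotyrosine antibody in a two-step endpoint format.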
Turning to `COc1ccc(-c2cn3ncc(Cl)c3c(O[C@H](C)[C@H]3CNC(=O)C3)n2)cc1OC` [(R)-4-((R)-1-((3-chloro-6-(3,4-dimethoxyphenyl)pyrazolo[1,5-a]pyrazin-4-yl)oxy)ethyl)pyrrolidin-2-one], the IC50 was 0.321 nM.

As for `C[C@@H](Oc1cc(-c2ccc(N3CCN(C4CCOCC4)CC3)cn2)cc2ncsc12)[C@H]1CNC(=O)C1` (stereo in doubt) [(R)-4-((R)-1-((5-(5-(4-(tetrahydro-2H-pyran-4-yl)piperazin-1-yl)pyridin-2-yl)benzo[d]thiazol-7-yl)oxy)ethyl)pyrrolidin-2-one], the IC50 was determined as 2.62 nM.

On to `C[C@@H](Oc1nc(-c2ccc(C#N)cc2)cc2ncn(C)c12)[C@H]1CNC(=O)C1` [4-(3-methyl-4-((R)-1-((R)-5-oxopyrrolidin-3-yl)ethoxy)-3H-imidazo[4,5-c]pyridin-6-yl)benzonitrile], for which the IC50 worked out at 28.4 nM.

In the case of `C[C@@H](Oc1nc(-c2cnn(C3CC3)c2)cc2ncn(C)c12)[C@H]1CNC(=O)C1` [(R)-4-((R)-1-(6-(1-cyclopropyl-1H-pyrazol-4-yl)-3-methyl-3H-imidazo[4,5-c]pyridin-4-yloxy)ethyl)pyrrolidin-2-one], the IC50 was 14 nM.

As to `C[C@@H](Oc1nc(-c2cnn(C(F)F)c2)cc2ncn(C)c12)[C@H]1CNC(=O)C1` [(R)-4-((R)-1-(6-(1-(difluoromethyl)-1H-pyrazol-4-yl)-3-methyl-3H-imidazo[4,5-c]pyridin-4-yloxy)ethyl)pyrrolidin-2-one], the IC50 amounted to 32.8 nM.

As to `COc1ccc(-c2cc3ncn(C4COC4)c3c(O[C@H](C)[C@H]3CNC(=O)C3)n2)cc1OC` [(R)-4-((R)-1-(6-(3,4-dimethoxyphenyl)-3-(oxetan-3-yl)-3H-imidazo[4,5-c]pyridin-4-yloxy)ethyl)pyrrolidin-2-one], the IC50 came out at 54.1 nM.

For `C[C@@H](Oc1nc(-c2ccc(S(C)(=O)=O)cc2)cc2ncn(C)c12)[C@H]1CNC(=O)C1` [(R)-4-((R)-1-(3-methyl-6-(4-(methylsulfonyl)phenyl)-3H-imidazo[4,5-c]pyridin-4-yloxy)ethyl)pyrrolidin-2-one], the IC50 was found to be 27.7 nM.

As for `COc1ccc(-c2cc3nc(C)n(C(C)C)c3c(O[C@H](C)[C@H]3CNC(=O)C3)n2)cc1OC` [(R)-4-((R)-1-(6-(3,4-dimethoxyphenyl)-3-isopropyl-2-methyl-3H-imidazo[4,5-c]pyridin-4-yloxy)ethyl)pyrrolidin-2-one], the IC50 came out at 317 nM.

On to `COc1ccc(-c2cc3ncn(C(F)F)c3c(O[C@H](C)[C@H]3CNC(=O)C34CC4)n2)cc1OC` [(R)-7-((R)-1-((3-(difluoromethyl)-6-(3,4-dimethoxyphenyl)-3H-imidazo[4,5-c]pyridin-4-yl)oxy)ethyl)-5-azaspiro[2.4]heptan-4-one], for which the IC50 amounted to 38 nM.

As for `Cc1c(-c2cc3ncn(C)c3c(O[C@H](C)[C@H]3CNC(=O)C3)n2)cnn1C` [(R)-4-((R)-1-(6-(1,5-dimethyl-1H-pyrazol-4-yl)-3-methyl-3H-imidazo[4,5-c]pyridin-4-yloxy)ethyl)pyrrolidin-2-one], the IC50 came to 41.7 nM.

Regarding `Cc1cnn2cc(-c3ccc(N4CCOCC4)cc3)nc(O[C@H](C)[C@H]3CNC(=O)C3)c12` [(R)-4-((R)-1-((3-methyl-6-(4-morpholinophenyl)pyrazolo[1,5-a]pyrazin-4-yl)oxy)ethyl)pyrrolidin-2-one], the IC50 came to 0.377 nM.

For `COCC[C@@H](Oc1nc(-c2cnn(C(C)(C)C)c2)cc2ncn(C)c12)[C@H]1CNC(=O)C1` [(R)-4-((R)-1-(6-(1-tert-butyl-1H-pyrazol-4-yl)-3-methyl-3H-imidazo[4,5-c]pyridin-4-yloxy)-3-methoxypropyl)pyrrolidin-2-one], the IC50 was determined as 171 nM.

Consider `C[C@@H](Oc1cc(-c2cnn(C(C)(C)C)c2)cc2ncn(C)c12)[C@H]1CNC(=O)C1` [(R)-4-((R)-1-((5-(1-(tert-butyl)-1H-pyrazol-4-yl)-1-methyl-1H-benzo[d]imidazol-7-yl)oxy)ethyl)pyrrolidin-2-one], for which the IC50 is 5.35 nM.

Take `CC(C)n1ccc(-c2cc(O[C@H](C)[C@H]3CNC(=O)C3)c3scnc3c2)n1` (stereo in doubt) [(R)-4-((R)-1-((5-(1-isopropyl-1H-pyrazol-3-yl)benzo[d]thiazol-7-yl)oxy)ethyl)pyrrolidin-2-one]: the IC50 came to 2.52 nM.

Consider `C[C@@H](Oc1cc(-c2ccc(N3CCOCC3)cc2)cn2nccc12)[C@H]1CNC(=O)C1` [(R)-4-((R)-1-((6-(4-morpholinophenyl)pyrazolo[1,5-a]pyridin-4-yl)oxy)ethyl)pyrrolidin-2-one], for which the IC50 was found to be 7.85 nM.

Still in this experiment, the particulars now being: table 'ALL NEW COMPOUNDS IN 2014', 20 μM ATP, 1 μM biotinylated peptide, 0.015 nM Syk, 30 min at room temperature, read-out: Syk IC50.
As to `C[C@@H](Oc1cc(-c2cnn(C3COC3)c2)cc2ncn(C3CC3)c12)[C@H]1CNC(=O)C1` [(R)-4-((R)-1-((1-cyclopropyl-5-(1-(oxetan-3-yl)-1H-pyrazol-4-yl)-1H-benzo[d]imidazol-7-yl)oxy)ethyl)pyrrolidin-2-one], the IC50 was determined as 3.21 nM.

For `C[C@@H](Oc1nc(-c2cnn(CC(C)(C)O)c2)cc2ncn(C3CC3)c12)[C@H]1CNC(=O)C1`, the IC50 was 9.65 nM.

For `C[C@@H](Oc1cc(-c2cccc(N)n2)cc2ncn(C3CC3)c12)[C@H]1CNC(=O)C1` [(R)-4-((R)-1-((5-(6-aminopyridin-2-yl)-1-cyclopropyl-1H-benzo[d]imidazol-7-yl)oxy)ethyl)pyrrolidin-2-one], the IC50 was 8.43 nM.

As for `C[C@@H](Oc1nc(-c2ccc3c(c2)NC(=O)C32CCN(S(C)(=O)=O)CC2)cc2ncn(C3CC3)c12)[C@H]1CNC(=O)C1` [6-(3-cyclopropyl-4-((R)-1-((R)-5-oxopyrrolidin-3-yl)ethoxy)-3H-imidazo[4,5-c]pyridin-6-yl)-1′-(methylsulfonyl)spiro[indoline-3,4′-piperidin]-2-one], the IC50 worked out at 1.08 nM.

In the case of `C[C@@H](Oc1nc(-c2ccc(N3CCN(C4COC4)CC3)nc2)cc2ncn(C3CC3)c12)[C@H]1CNC(=O)C1` [(R)-4-((R)-1-((3-cyclopropyl-6-(6-(4-(oxetan-3-yl)piperazin-1-yl)pyridin-3-yl)-3H-imidazo[4,5-c]pyridin-4-yl)oxy)ethyl)pyrrolidin-2-one], the IC50 stood at 3.63 nM.

Take `C[C@@H](Oc1nc(-c2ccc(N3CCn4c(nnc4C(F)(F)F)C3)cc2)cc2ncn(C3CC3)c12)[C@H]1CNC(=O)C1` [(R)-4-((R)-1-((3-cyclopropyl-6-(4-(3-(trifluoromethyl)-5,6-dihydro-[1,2,4]triazolo[4,3-a]pyrazin-7(8H)-yl)phenyl)-3H-imidazo[4,5-c]pyridin-4-yl)oxy)ethyl)pyrrolidin-2-one]: the 50% inhibitory concentration (IC50) turned out to be 2.17 nM.

Turning to `C[C@@H](Oc1nc(-c2ccc3oc(=O)n(C)c3c2)cc2ncn(C3CC3)c12)[C@H]1CNC(=O)C1`, the IC50 turned out to be 14.4 nM.

For the compound `C[C@@H](Oc1cc(-c2cnn(C(C)(C)C)c2)cc2ncn(C3CC3)c12)[C@H]1CNC(=O)C1` [(R)-4-((R)-1-((5-(1-(tert-butyl)-1H-pyrazol-4-yl)-1-cyclopropyl-1H-benzo[d]imidazol-7-yl)oxy)ethyl)pyrrolidin-2-one], the IC50 amounted to 0.454 nM.

In the case of `C[C@@H](Oc1cc(-c2ccc(N3CCN(C4COC4)CC3)c(F)c2)cc2ncn(C3CC3)c12)[C@H]1CNC(=O)C1` [(R)-4-((R)-1-((1-cyclopropyl-5-(3-fluoro-4-(4-(oxetan-3-yl)piperazin-1-yl)phenyl)-1H-benzo[d]imidazol-7-yl)oxy)ethyl)pyrrolidin-2-one], the IC50 is 3.08 nM.

Consider `Cc1ncc(-c2cc3ncn(C4CC4)c3c(O[C@H](C)[C@H]3CNC(=O)C3)n2)s1` [(R)-4-((R)-1-((3-cyclopropyl-6-(2-methylthiazol-5-yl)-3H-imidazo[4,5-c]pyridin-4-yl)oxy)ethyl)pyrrolidin-2-one], for which the IC50 was found to be 10.2 nM.

`C[C@@H](Oc1nc(-c2cnc(C(C)(C)O)s2)cc2ncn(C3CC3)c12)[C@H]1CNC(=O)C1` [(R)-4-((R)-1-((3-cyclopropyl-6-(2-(2-hydroxypropan-2-yl)thiazol-5-yl)-3H-imidazo[4,5-c]pyridin-4-yl)oxy)ethyl)pyrrolidin-2-one]: the IC50 is 7.54 nM.

Consider `C[C@@H](Oc1nc(-c2ccnc(C3C=NN=C3)c2)cc2ncn(C3CC3)c12)[C@H]1CNC(=O)C1` [(R)-4-((R)-1-((6-(2-(1H-pyrazol-4-yl)pyridin-4-yl)-3-cyclopropyl-3H-imidazo[4,5-c]pyridin-4-yl)oxy)ethyl)pyrrolidin-2-one], for which the IC50 amounted to 8.44 nM.

In the case of `O=C1C[C@@H](COc2nc(-c3ccc(N4CCN(C5COC5)CC4)cc3)cc3ncn(C4CC4)c23)CN1` [(R)-4-(((3-cyclopropyl-6-(4-(4-(oxetan-3-yl)piperazin-1-yl)phenyl)-3H-imidazo[4,5-c]pyridin-4-yl)oxy)methyl)pyrrolidin-2-one], the IC50 was 65.3 nM.

On to `C[C@@H](Oc1cc(-c2cnn(-c3ccncc3)c2)cc2ncn(C3CC3)c12)[C@H]1CNC(=O)C1` [(R)-4-((R)-1-((1-cyclopropyl-5-(1-(pyridin-4-yl)-1H-pyrazol-4-yl)-1H-benzo[d]imidazol-7-yl)oxy)ethyl)pyrrolidin-2-one], for which the IC50 was determined as 7.58 nM.
